From patent US4734376A, “Process for the spectrophotometric measurement of lithium ion employing a chromogenic aza-12-crown-4- ether” (The President & Trustees of the Miami University, priority 1986, dated 1988)
“Also recorded” adds a separate entry of the source. Read-outs that look alike come from different tables or passages of the source. Values belong to the molecule of their own block, whether it stands above or below them.

Experiments:
[1] = Determination of extraction constant KML^ex, sodium ion; format: physicochemical; settings: for -log K^ex NaL (extraction constant): solvent chloroform
Excerpt: (§1) Extraction equilibria are illustrated in FIG. 2 and in the following equation: [formula] where [M^+ ]t denotes a total alkali metal concentration. By assuming [L^-a ]>>[HLa ]+[MLa ], and [M^+ ]t >>[HL]t,
(§2) [HL]t =[HLo ]+[MLo ]+[L^-a ] (12)
(§3) Combining Eq. (8), (11), (12), and (13) gives [formula] where Δε=εMLo -εHLo, and E° denotes the E value in the absence of the metal ion in the system (E°=^ε HLo). […] The absorbance at the isosbestic point 401.4 nm shown in FIG. 1 gives εL.spsb.-.sbsb.a, so that the values of E and Eo, which are necessary for the plot, can be obtained experimentally.
(§4) Determination of the partition equilibrium system was made in a manner similar to that employed in Example 7. The concentrations [HL]t, [M^+ ]t, and [OH^- ] were 5.35×10^-5 M, 4×10^-3 M-2 M (as chloride), and 10^-2 M-10^-1 M (as potassium hydroxide), respectively. Chloroform was used as the organic medium.
(§5) In order to confirm the important assumption [La^- ]>>[HLa]+[MLa ], Eq.(11) (the left equation) was used for the evaluation of E instead of Eq.(15), which was derived from Eq.(11) under the assumption, and the obtained extraction constants compared with those obtained using Eq.(15). When Eq.(11) was applied, the species HLo and MLo in the organic layer were extracted into 0.1M hydrochloric acid as HLH^+, and the concentration of HLH+was determined spectrophotometrically and equated to [HLo ]+[MLo ]in Eq.(11). The extraction constants obtained in this way are […]

[2] = Determination of extraction constant KML^ex, lithium ion; format: physicochemical; settings: for -log K^ex LiL (extraction constant): solvent chloroform
Excerpt: as §1, §2, §3, §4, §5

[3] = pH dependence of the structures; format: physicochemical
[4] = Effect of sodium ion on lithium determination; format: physicochemical; settings: 30-fold excess of sodium ions to lithium ions (Na+:Li+ weight ratio 30:1); versus Li+ alone; chloroform layer (Example 9: 400 nm)
Protocol: The effect of sodium ion in the system was determined in a procedure similar to that used in Example 7. A series of six round-bottomed flasks containing 5 ml of chloroform, and 5 ml of an aqueous solution containing aza-12-crown-4 reagent (6.7×10^-4 M), lithium chloride (1×10^-4 =0.694 μg ml^-1), and a variable amount of sodium chloride [sodium chloride was added to five of these flasks in 0.001M increments whereby the [NaCl]aq =1×10^-3 M to 5×10^-3 M (23 μg ml^-1 through 115 μg ml^-1); one flask served as a sodium-free blank]. Absorbance of the organic layer was measured on a spectrophotomer. The results are illustrated in FIG. 4.

[5] = Effect of organic solvents and bases on response to lithium and sodium ion; format: physicochemical
Protocol: Three solvents--chloroform, 1,2-dichloroethane and methylene chloride--werecompared using potassium hydroxide and sodium hydroxide as bases. […] At 0.1M hydroxide, however, large differences were observed both between the cations and between the organic solvents. […] The best stability of the absorbance after the separation of organic layer from the equilibrium system was also observed for this system.
Various other organic solvents were tested as organic media with a 0.01 M potassium hydroxide.

[6] = Determination of acid dissociation constants K1 and K2 by spectrophotometric titration; format: physicochemical; settings: μ = 0.1 (CsCl), aqueous
Protocol: A 50 ml aqueous solution containing the crown reagent of Example 5 (8.70×10^-5 M), hydrochloric acid (6×10^-4 M), and cesium chloride (0.1 M) was titrated with potassium hydroxide [0.1 M (below pH12), and 1 M (above pH12)], using a Metrohm automatic titrator, Dosimat E535 equipped with Potentiograph E536. The titration was interrupted in every 0.3-1.5 pH increase for the measurement of the absorption spectrum of the solution. A 3-4 ml portion of the solution was taken to a cuvette, the spectrum was recorded on a Hewlett-Packard 8450A spectrometer, and the solution was returned to the titration vessel using a pipet. The magnitude of the spectrum was corrected in order to adjust for dilution upon titration, and corrected results shown in FIG. 1.
[formula] where K1 and K2 denote the acid dissociation constants, and KML a complex formation constant. By assuming no significant complex-formation, an absorbance A at any wavelength and the total concentration of the reagent [HL]t are written as
A=εHLH.spsb.+ [HLH^+ ]+εHL
[HL]+εLL.spsb.- [L^- ] (4)
[HL]t =[HLH^ […] ]+[HL]+[L^- ] (5)
where ε's are molar absorption coefficients. […]
At 342.8 nm and at pH ≥9.7, the absorbance deviating from the isosbestic point reflects the decay of HL and the growth of L-, so that these absorbance data can be used for the evaluation of -logK2 using Eq. (7). […]

[7] = μ = 0.1 (CH3)4NCl; reported by Nakamura et al; cited from earlier work
[8] = cited from earlier work
[9] = solvent 1,2-dichloroethane; pH not specified; reported by Nakamura et al; cited from earlier work
[10] = obtained using Eq. (11), organic species back-extracted into 0.1M hydrochloric acid, chloroform

SMILES: O=[N+]([O-])c1ccc(O)c(CN2CCOCCOCCOCC2)c1 [aza-12-crown-4, 1-(2-oxy-5-nitrobenzyl)-1-hydro-1-aza-4,7,10-trioxacyclododecane]
- -log K^ex NaL (extraction constant) ([1]; 0.05M KOH): 12.49
- -log K^ex NaL (extraction constant) ([1]; 0.1M KOH): 12.50
- -log KNaL^ex (extraction constant) [1, 10]: 12.47
- -log K^ex LiL (extraction constant) ([2]; 0.05M KOH): 10.23
- -log K^ex LiL (extraction constant) ([2]; 0.1M KOH): 10.18
- dependence of -log KLiL^ex on hydroxide concentration ([2]; 10^-2 M-10^-1 M KOH, chloroform): not significantly dependent on the hydroxide concentration employed
- ratio of KLiL^ex to KNaL^ex (selectivity) ([2]; compared with aza-15-crown-5): much greater than the aza-15-crown5
- KLiL^ex smaller than that of prior art aza-15-crown-5, factor ([2]; compared with prior art aza-15-crown-5): smaller by a factor of ten
- -log KLiL^ex (extraction constant) [2, 10]: 10.25
- pH at which the structure predominates ([3]; listed as iii): approximately 8
- increase in absorbance in presence of sodium ion [4]: 8%
- sensitivity and interference differences between bases and solvents ([5]; 0.01 M hydroxide, chloroform, 1,2-dichloroethane, methylene chloride, KOH and NaOH): no significant sensitivity and interference differences were observed
- sensitivity and sodium interference, bases and solvents ([5]; 0.1M hydroxide, chloroform, 1,2-dichloroethane, methylene chloride, KOH and NaOH): Potassium hydroxide gave higher sensitivity in both chloroform and methylene chloride than sodium hydroxide, but not in 1,2-dichloroethane; also recorded: Methylene chloride exhibited the highest sensitivity when used with potassium hydroxide, but was subject to increased interference by sodium ions; also recorded: The combination of methylene chloride and sodium hydroxide allowed most of the reagent to pass into the organic layer; also recorded: optimum combination of high sensitivity, low interference, and low blank absorption was achieved by a system employing 0.1M potassium hydroxide and chloroform
- response / extraction by organic solvent ([5]; organic solvents tested with 0.01 M potassium hydroxide): no response of the reagent to lithium and sodium ion was observed; also recorded: Methyisobutyl-ketone showed only slight extraction of the metal complex; also recorded: No extraction occurred into benzene, carbon tetrachloride, chlorobenzene, and trichlorethylene
- response with triethylamine as base ([5]; triethylamine 1M in CHCl3, compared with KOH): the response to lithium ions was smaller and the response to sodium ions was larger
- response with triethylamine plus sodium hydroxide ([5]; triethylamine 1M in CHCl3 and sodium hydroxide 0.1M): intermediate response to lithium ions, and the response was not stable
- -log K1 (acid dissociation constant) [6]: 5.77
- -log K2 (acid dissociation constant; pK2) [6]: 10.31

SMILES: O=[N+]([O-])c1ccc(O)c(CN2CCOCCOCCOCCOCC2)c1 [aza-15-crown-5, N-(2-hydroxy-5-nitrobenzyl)-aza-15-crown-5]
- -log K1 (acid dissociation constant) [7]: 5.79
- -log K2 (acid dissociation constant) [7]: 9.69
- -log K^ex LiL (extraction constant) ([8]; solvent 1,2-dichloroethane, pH not specified, reported by Nakamura et al): 9.15
- -log K^ex NaL (extraction constant) [9]: 9.76

SMILES: C1COCCN2CCOCCN(CCO1)CCOCC2 [cryptand [2,1,1]]
- sensitivity to lithium ions ([8]; cryptand itself, without ion pairing agent): not sensitive to lithium ions
- extraction of lithium ions compared with reagent of Nakamura et al ([8]; with ion pairing agent resazurin): more selectively and more efficiently

Next, values leading:

- pH at which the structure predominates [3]: less than 5
SMILES: O=[N+]([O-])c1ccc(O)c(CN2CCOCCOCCOCC2)c1 [i, 1-(2-hydroxy-5-nitrobenzyl)-1-hydro-1-aza-4,7,10-trioxacyclododecane]

- pH at which the structure predominates [3]: greater than 11
SMILES: O=[N+]([O-])c1ccc(O)c(CN2CCOCCOCCOCC2)c1 [ii, 1-(2-oxy-5-nitrobenzyl)1-aza-4,7,10-trioxacyclododecane]
